From article PMC4858680, “A platinum-based hybrid drug design approach to circumvent acquired resistance to molecular targeted tyrosine kinase inhibitors” (Scientific Reports, 2016)
Where two headings read alike, the source gives them in different places.

Tests used:
EPHB2 = target: T1, EPHB2 (Homo sapiens, UniProt P29323); details: 10 μM
T1 sequence (P29323 19-1055): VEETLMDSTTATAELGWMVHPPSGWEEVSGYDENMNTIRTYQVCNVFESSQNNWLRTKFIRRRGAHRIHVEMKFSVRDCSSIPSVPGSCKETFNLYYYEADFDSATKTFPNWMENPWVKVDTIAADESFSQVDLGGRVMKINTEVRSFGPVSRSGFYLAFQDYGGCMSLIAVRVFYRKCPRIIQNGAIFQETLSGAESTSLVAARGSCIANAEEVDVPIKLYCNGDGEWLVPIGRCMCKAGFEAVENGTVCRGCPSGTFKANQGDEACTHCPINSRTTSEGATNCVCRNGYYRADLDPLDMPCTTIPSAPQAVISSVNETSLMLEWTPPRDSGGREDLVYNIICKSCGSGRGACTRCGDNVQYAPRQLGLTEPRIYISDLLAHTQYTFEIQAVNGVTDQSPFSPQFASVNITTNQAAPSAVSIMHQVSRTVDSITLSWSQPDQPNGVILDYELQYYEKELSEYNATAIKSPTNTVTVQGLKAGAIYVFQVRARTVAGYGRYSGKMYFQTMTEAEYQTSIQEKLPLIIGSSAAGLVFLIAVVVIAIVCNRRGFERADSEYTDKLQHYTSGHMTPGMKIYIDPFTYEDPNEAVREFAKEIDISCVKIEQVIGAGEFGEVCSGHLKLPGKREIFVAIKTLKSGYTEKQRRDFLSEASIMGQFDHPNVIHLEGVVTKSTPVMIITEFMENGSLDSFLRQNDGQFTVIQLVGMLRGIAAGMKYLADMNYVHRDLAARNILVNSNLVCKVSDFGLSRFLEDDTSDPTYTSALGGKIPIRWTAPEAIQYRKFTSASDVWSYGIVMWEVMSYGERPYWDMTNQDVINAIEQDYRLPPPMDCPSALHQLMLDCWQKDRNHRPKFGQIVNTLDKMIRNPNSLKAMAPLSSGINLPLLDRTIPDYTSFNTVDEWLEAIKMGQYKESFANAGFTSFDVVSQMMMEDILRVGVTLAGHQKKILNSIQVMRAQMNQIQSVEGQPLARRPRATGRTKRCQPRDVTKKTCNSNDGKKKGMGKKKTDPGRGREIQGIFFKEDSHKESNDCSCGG

FLT3 = target: T2, FLT3 (Homo sapiens, UniProt P36888)
T2 sequence (P36888 27-993): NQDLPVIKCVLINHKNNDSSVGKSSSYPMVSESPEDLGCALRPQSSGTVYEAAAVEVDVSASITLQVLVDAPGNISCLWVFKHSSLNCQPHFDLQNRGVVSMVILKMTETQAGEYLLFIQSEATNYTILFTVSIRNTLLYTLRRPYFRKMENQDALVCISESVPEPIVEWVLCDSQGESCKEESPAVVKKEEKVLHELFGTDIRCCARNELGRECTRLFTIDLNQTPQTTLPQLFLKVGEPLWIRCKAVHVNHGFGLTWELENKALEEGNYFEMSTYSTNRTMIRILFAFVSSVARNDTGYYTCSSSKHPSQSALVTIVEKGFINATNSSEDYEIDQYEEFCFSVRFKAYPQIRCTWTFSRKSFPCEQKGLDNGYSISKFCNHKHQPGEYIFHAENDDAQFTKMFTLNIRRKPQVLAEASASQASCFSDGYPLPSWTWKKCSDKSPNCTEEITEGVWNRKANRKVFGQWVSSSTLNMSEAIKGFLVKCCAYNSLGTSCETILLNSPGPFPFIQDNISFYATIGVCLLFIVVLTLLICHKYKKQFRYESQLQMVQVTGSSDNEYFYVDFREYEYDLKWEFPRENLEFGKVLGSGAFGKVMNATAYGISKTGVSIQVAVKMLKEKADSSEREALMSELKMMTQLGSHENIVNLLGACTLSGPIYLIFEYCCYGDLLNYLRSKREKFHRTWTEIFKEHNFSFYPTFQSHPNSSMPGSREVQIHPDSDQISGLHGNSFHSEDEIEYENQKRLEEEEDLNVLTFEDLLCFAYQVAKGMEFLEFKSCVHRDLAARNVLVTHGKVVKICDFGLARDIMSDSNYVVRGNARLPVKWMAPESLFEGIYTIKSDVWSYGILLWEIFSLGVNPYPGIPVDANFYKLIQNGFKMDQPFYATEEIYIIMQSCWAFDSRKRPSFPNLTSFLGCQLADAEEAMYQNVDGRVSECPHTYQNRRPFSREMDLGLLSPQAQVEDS

ITK = target: T3, ITK (Homo sapiens, UniProt Q08881); details: 10 μM
T3 sequence (Q08881 1-620): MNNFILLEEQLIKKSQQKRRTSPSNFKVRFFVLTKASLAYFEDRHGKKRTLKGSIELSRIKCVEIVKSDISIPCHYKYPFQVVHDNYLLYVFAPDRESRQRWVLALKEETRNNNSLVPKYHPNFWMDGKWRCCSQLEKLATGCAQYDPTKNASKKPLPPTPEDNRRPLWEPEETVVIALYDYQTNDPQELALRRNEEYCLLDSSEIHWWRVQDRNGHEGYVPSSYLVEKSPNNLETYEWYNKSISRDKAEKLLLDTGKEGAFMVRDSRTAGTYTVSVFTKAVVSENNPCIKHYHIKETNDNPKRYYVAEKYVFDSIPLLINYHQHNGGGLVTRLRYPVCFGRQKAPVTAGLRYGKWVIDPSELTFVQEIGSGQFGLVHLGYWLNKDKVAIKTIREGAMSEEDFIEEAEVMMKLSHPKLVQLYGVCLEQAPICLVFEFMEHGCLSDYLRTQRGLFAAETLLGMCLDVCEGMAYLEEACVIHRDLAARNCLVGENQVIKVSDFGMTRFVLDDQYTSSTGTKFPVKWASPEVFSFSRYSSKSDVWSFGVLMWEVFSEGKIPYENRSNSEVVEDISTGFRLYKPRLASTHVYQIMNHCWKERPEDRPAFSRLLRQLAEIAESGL

KIT(L576P) = KIT(L576P) (Homo sapiens, UniProt P10721, L576P); details: 10 μM
RET(V804TL) = RET(V804TL) (Homo sapiens, UniProt P07949, V804L); details: 10 μM
Chain of RET(V804TL) (P07949 29-1114 V804L): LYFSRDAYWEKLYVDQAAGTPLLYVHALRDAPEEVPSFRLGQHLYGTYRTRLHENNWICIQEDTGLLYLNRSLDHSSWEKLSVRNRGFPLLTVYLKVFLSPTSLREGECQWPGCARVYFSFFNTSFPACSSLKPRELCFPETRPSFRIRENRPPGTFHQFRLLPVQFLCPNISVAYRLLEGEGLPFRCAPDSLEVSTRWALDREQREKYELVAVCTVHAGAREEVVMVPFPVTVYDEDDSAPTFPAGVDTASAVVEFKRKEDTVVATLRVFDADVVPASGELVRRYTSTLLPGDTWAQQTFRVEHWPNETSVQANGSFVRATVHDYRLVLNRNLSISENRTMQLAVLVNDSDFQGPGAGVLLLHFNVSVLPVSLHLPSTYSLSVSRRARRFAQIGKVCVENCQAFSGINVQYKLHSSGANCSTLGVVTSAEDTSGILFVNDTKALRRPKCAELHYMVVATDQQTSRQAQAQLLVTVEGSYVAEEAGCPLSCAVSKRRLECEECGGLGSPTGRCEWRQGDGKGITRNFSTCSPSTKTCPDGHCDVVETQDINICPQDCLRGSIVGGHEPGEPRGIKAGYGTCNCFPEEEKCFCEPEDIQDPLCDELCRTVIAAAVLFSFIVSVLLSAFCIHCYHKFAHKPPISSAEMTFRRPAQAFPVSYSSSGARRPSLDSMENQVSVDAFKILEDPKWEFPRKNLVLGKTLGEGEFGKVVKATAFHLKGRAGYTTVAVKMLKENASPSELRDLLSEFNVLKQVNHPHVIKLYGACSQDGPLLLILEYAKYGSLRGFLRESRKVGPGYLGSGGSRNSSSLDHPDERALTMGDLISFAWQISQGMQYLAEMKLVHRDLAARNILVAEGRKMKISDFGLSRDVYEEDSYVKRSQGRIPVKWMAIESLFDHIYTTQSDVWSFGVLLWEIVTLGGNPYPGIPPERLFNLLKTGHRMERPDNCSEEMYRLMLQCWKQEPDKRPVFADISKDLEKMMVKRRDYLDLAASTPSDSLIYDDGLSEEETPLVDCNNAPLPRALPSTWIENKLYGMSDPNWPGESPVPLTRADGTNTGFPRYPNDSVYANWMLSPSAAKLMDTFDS

Chain of KIT(L576P) (P10721 26-976 L576P): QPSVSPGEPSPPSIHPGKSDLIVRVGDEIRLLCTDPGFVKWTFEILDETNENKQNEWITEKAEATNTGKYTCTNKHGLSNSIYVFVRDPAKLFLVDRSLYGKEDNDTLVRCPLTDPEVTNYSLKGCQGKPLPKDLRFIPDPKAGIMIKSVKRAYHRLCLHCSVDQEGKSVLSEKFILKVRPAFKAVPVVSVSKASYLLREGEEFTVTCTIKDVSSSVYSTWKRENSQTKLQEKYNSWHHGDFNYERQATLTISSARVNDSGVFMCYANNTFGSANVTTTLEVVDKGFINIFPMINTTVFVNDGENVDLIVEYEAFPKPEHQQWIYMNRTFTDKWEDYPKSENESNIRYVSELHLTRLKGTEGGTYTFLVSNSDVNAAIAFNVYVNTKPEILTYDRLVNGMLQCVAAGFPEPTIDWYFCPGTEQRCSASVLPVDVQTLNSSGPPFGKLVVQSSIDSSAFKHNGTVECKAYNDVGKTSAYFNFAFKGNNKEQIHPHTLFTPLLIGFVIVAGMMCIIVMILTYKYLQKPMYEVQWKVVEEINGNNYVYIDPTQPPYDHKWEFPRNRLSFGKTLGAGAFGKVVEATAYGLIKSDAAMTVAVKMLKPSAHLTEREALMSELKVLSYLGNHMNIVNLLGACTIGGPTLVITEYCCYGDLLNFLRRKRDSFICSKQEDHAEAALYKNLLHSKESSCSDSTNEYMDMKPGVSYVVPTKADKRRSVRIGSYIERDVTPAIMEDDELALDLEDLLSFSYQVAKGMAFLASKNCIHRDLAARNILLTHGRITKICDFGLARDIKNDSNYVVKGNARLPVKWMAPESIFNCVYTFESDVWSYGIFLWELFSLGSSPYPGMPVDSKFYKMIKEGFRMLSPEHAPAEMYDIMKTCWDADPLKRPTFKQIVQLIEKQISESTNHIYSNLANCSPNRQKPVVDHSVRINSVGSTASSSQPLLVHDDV

SMILES	Percent control (EPHB2) [%]	Percent control (FLT3; FLT3, 10 μM) [%]	Percent control (ITK) [%]	Percent control (KIT(L576P)) [%]	Percent control (RET(V804TL)) [%]	Percent control (FLT3)
Cc1ccc(NC(=O)c2ccc(CN3CCN(C)CC3)cc2)cc1Nc1nccc(-c2cccnc2)[n+]1[Pt-2]1([Cl])[NH2+]C2CCCCC2[NH2+]1 (stereo not shown) [1b, oxaliplatin-imatinib]	95	88	100	0.9	100	
Cc1ccc(NC(=O)c2ccc(CN3CCN(C)CC3)cc2)cc1Nc1nccc(-c2cccnc2)n1 [Imatinib, reference compound]		100			100	
COc1cc2c(Nc3ccc(Br)cc3F)[n+]([Pt-2]3([Cl])[NH2+]C4CCCCC4[NH2+]3)cnc2cc1OCC1CCN(C)CC1 (stereo not shown) [3b, oxaliplatin-vandetanib]	69		95	2.2		49
C#Cc1cccc(Nc2c3cc(OCCOC)c(OCCOC)cc3nc[n+]2[Pt@SP2-2]([NH3+])([NH3+])[Cl])c1 [2a, cisplatin-erlotinib]	94		84	73	100	75
